Test system: mouse long-term hematopoietic stem cells
Experiment: Reproducibility and concentration dependence test: 1-week culture of sorted Hoxb5-tri-mCherry mouse long-term hematopoietic stem cells, flow cytometry
Type: cell-based
Settings: Table 4, day 7 of culture, n=2
How it was run: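 Hoxb5-tri-mCherry+ LT-HSCs (Lin−c-Kit+Sca-1+Flk2−CD34−/lo CD150+) were sorted from mouse bone marrow at 10 cells/well into StemSpan SFEM with SCF and TPO. Cells were cultured with compound for 1 week at 37°C, 5% CO2. Flow cytometry then measured KLS and mCherry+ fractions and cell counts.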

SMILES	KLS-positive rate (compound 0.1 μM) [%]	Viable cell count (compound 0.1 μM) [cell]	mCherry-positive rate (compound 0.1 μM) [%]	KLS-positive rate (compound 0.3 μM) [%]	Viable cell count (compound 0.3 μM) [cell]	mCherry-positive rate (compound 0.3 μM) [%]	KLS-positive rate (compound 1 μM) [%]	Viable cell count (compound 1 μM) [cell]	mCherry-positive rate (compound 1 μM) [%]	KLS-positive rate (compound 3 μM) [%]	Viable cell count (compound 3 μM) [cell]	mCherry-positive rate (compound 3 μM) [%]	KLS-positive rate (compound 10 μM) [%]	Viable cell count (compound 10 μM) [cell]	mCherry-positive rate (compound 10 μM) [%]
CC1=CO[C@@H]2O[C@@]3(C)CC[C@H]4[C@H](C)CC[C@@H]1[C@@]24OO3 [Example 1-28, (3R,5aS,6R,8aS,12R,12aR)-3,6,9-trimethyl-3,4,5,5a,6,7,8,8a-octahydro-12H-3,12-epoxypyrano[4,3-j][1,2]benzodioxepine]	21.5	275.5	12.9	13.5	305.0	15.0	10.5	522.0	35.5	16.5	283.0	80.3	41.2	138.0	96.4
C[C@@H]1CC[C@H]2[C@@H](C)C(=O)O[C@@H]3O[C@@]4(C)CC[C@@H]1[C@]32O4 [Example 1-34, (3R,3aS,6R,6aS,9S,10aS,10bR)-3,6,9-Trimethyloctahydro-10aH-9,10b-epoxypyrano[4,3,2-jk][2]benzoxepin-2(3H)-one]	77.3	136.5	11.7	28.4	389.0	18.3	21.8	713.5	15.2	27.7	268.0	14.6	27.5	70.0	0.4
C[C@H]1[C@@H](OCC(F)(F)F)O[C@@H]2O[C@@]3(C)CC[C@H]4[C@H](C)CC[C@@H]1[C@@]24OO3 [Example 1-22, (3R,5aS,6R,8aS,9R,10S,12R,12aR)-3,6,9-Trimethyl-10-(2,2,2-trifluoroethoxy)decahydro-12H-3,12-epoxypyrano[4,3-j][1,2]benzodioxepine]	26.7	216.0	90.9	87.0	12.5	100.0	0.0	0.5	0.0	50.0	0.5	50.0	0.0	0.5	0.0
C[C@H]1[C@@H](c2ccccc2)O[C@@H]2O[C@@]3(C)CC[C@H]4[C@H](C)CC[C@@H]1[C@@]24OO3 [Example 1-2, (3R,5aS,6R,8aS,9R,10S,12R,12aR)-3,6,9-Trimethyl-10-phenyldecahydro-12H-3,12-epoxypyrano[4,3-j][1,2]benzodioxepine]	16.0	340.5	59.9	50.0	0.5	50.0	0.0	0.5	0.0	0.0	0.5	50.0	0.0	0.0	0.0
C[C@H]1[C@H](C(=O)O)O[C@@H]2O[C@@]3(C)CC[C@H]4[C@H](C)CC[C@@H]1[C@@]24OO3 [Example 1-8, (3R,5aS,6R,8aS,9R,10R,12R,12aR)-3,6,9-Trimethyldecahydro-12H-3,12-epoxypyrano[4,3-j][1,2]benzodioxepine-10-carboxylic acid]	17.3	396.5	3.0	18.2	379.5	7.7	28.7	248.0	12.0	37.3	204.5	12.9	20.6	286.5	29.0
C[C@H]1[C@@H](Oc2ccccc2)O[C@@H]2O[C@@]3(C)CC[C@H]4[C@H](C)CC[C@@H]1[C@@]24OO3 [Example 1-21, (3R,5aS,6R,8aS,9R,10S,12R,12aR)-3,6,9-trimethyl-10-phenoxydecahydro-12H-3,12-epoxypyrano[4,3-j][1,2]benzodioxepine]	0.0	0.0	0.0	0.0	2.0	50.0	0.0	0.5	0.0	0.0	0.5	50.0	0.0	0.5	50.0
C[C@H]1[C@H](CN)O[C@@H]2O[C@@]3(C)CC[C@H]4[C@H](C)CC[C@@H]1[C@@]24OO3 [Example 1-18, 1-[(3R,5aS,6R,8aS,9R,10R,12R,12aR)-3,6,9-Trimethyldecahydro-12H-3,12-epoxypyrano[4,3-j][1,2]benzodioxepin-10-yl]methanamine]	10.9	405.0	23.5	16.7	191.0	15.4	22.4	162.0	19.2	30.9	154.0	80.5	49.6	72.5	98.6
CC(=O)OCCOC1O[C@@H]2O[C@@]3(C)CC[C@H]4[C@H](C)CC[C@@H]([C@H]1C)[C@@]24OO3 (stereo in doubt) [Example 1-26, 2-{[(3R,5aS,6R,8aS,9R,10S,12R,12aR)-3,6,9-Trimethyldecahydro-12H-3,12-epoxypyrano[4,3-j][1,2]benzodioxepin-10-yl]oxy}ethyl acetate]	56.1	13.5	80.7	68.5	48.5	95.0	55.4	20.0	96.7	26.9	43.5	100.0	28.9	30.5	100.0
C[C@H]1[C@@H](F)O[C@@H]2O[C@@]3(C)CC[C@H]4[C@H](C)CC[C@@H]1[C@@]24OO3 [Example 1-1, (3R,5aS,6R,8aS,9R,10R,12S,12aR)-10-Fluoro-3,6,9-trimethyldecahydro-12H-3,12-epoxypyrano[4,3-j][1,2]benzodioxepine]	46.5	477.0	0.5	0.0	0.0	0.0	0.0	0.5	50.0	0.0	0.0	0.0	0.0	0.0	0.0
C[C@H]1[C@H](n2cc(-c3ccccc3)nn2)O[C@@H]2O[C@@]3(C)CC[C@H]4[C@H](C)CC[C@@H]1[C@@]24OO3 [Example 1-9, 4-Phenyl-1-[(3R,5aS,6R,8aS,9R,10R,12R,12aR)-3,6,9-trimethyldecahydro-12H-3,12-epoxypyrano[4,3-j][1,2]benzodioxepin-10-yl]-1H-1,2,3-triazole]	10.6	627.5	5.9	31.1	500.0	4.5	34.3	625.0	9.4	14.1	479.0	8.1	27.1	491.5	11.4
CS[C@@H]1O[C@@H]2O[C@@]3(C)CC[C@H]4[C@H](C)CC[C@@H]([C@H]1C)[C@@]24OO3 [Example 1-3, (3R,5aS,6R,8aS,9R,10S,12S,12aR)-3,6,9-Trimethyl-10-(methylsulfanyl)decahydro-12H-3,12-epoxypyrano[4,3-j][1,2]benzodioxepine]	15.8	445.0	8.0	18.6	324.0	4.7	20.3	299.5	38.6	24.2	139.0	97.0	83.4	3.5	100.0

Reference: patent US20230094952A1, “Method for Culturing Hematopoietic Stem Cells” (Sumitomo Pharma Co., Ltd., priority 2019, published 2023)
